Measurements from patent US20220024891A1 (The Board of Regents of the University of Texas System, priority 2018, published 2022).

A melting point of 62 to 65 °C was found for `Cc1cc(C)c(S(=O)(=O)N2CCC(N3CCC(C)CC3)CC2)c(C)c1` [compound 47, 1′-(Mesitylsulfonyl)-4-methyl-1,4′-bipiperidine] in this work.

A melting point of 89 to 91 °C was found for `Cc1cc(Cl)cc(Cl)c1S(=O)(=O)N1CCC(N2CCC(C)CC2)CC1` [compound 49, 1′-((2,4-Dichloro-6-methylphenyl)sulfonyl)-4-methyl-1,4′-bipiperidine] in this work.

A melting point of 161 to 163 °C was found for `CC1CCN(C2CCN(S(=O)(=O)c3cc(F)c(Br)c(F)c3)CC2)CC1` [compound 50, 1′-((4-Bromo-3,5-difluorophenyl)sulfonyl)-4-methyl-1,4′-bipiperidine] in this work.

A melting point of 106 to 109 °C was found for `CC1CCN(C2CCN(S(=O)(=O)c3ccccc3-c3ccccc3)CC2)CC1` [compound 51, 1′-([1,1′-Biphenyl]-2-ylsulfonyl)-4-methyl-1,4′-bipiperidine] in this work.

A melting point of 178 to 181 °C was found for `CC1CCN(C2CCN(S(=O)(=O)c3ccc(-c4ccccc4)cc3)CC2)CC1` [compound 56, 1′-([1,1′-Biphenyl]-4-ylsulfonyl)-4-methyl-1,4′-bipiperidine] in this work.

A melting point of 205 to 207 °C was found for `CC1CCN(C2CCN(S(=O)(=O)c3ccc(-c4ccc(Cl)cc4)cc3)CC2)CC1` [compound 57, 1′-((4′-Cloro-[1,1′-biphenyl]-4-yl)sulfonyl)-4-methyl-1,4′-bipiperidine] in this work.

A melting point of 195 to 198 °C was found for `COc1ccc(-c2ccc(S(=O)(=O)N3CCC(N4CCC(C)CC4)CC3)cc2)cc1` [compound 58, 1′-((4′-Methoxy-[1,1′-biphenyl]-4-yl)sulfonyl)-4-methyl-1,4′-bipiperidine] in this work.

A melting point of 124 to 126 °C was found for `CC1CCN(C2CCN(S(=O)(=O)c3cccc(-c4ccc(Cl)cc4)c3)CC2)CC1` [compound 62, 1′-((4′-Chloro-[1,1′-biphenyl]-3-yl)sulfonyl)-4-methyl-1,4′-bipiperidine] in this work.

A melting point of 107 to 109 °C was found for `COc1ccc(-c2cccc(S(=O)(=O)N3CCC(N4CCC(C)CC4)CC3)c2)cc1` [compound 63, 1′-((4′-Methoxy-[1,1′-biphenyl]-3-yl)sulfonyl)-4-methyl-1,4′-bipiperidine] in this work.

A melting point of 103 to 105 °C was found for `Cc1ccc(-c2cccc(S(=O)(=O)N3CCC(N4CCC(C)CC4)CC3)c2)cc1` [compound 64, 4-Methyl-1′-((4′-methyl-[1,1′-biphenyl]-3-yl)sulfonyl)-1,4′-bipiperidine] in this work.

A melting point of 110 to 112 °C was found for `CC1CCN(C2CCN(S(=O)(=O)c3cccc(-c4ccccc4C(F)(F)F)c3)CC2)CC1` [compound 68, 4-Methyl-1′-((2′-(trifluoromethyl)-[1,1′-biphenyl]-3-yl)sulfonyl)-1,4′-bipiperidine] in this work.

A melting point of 120 to 123 °C was found for `Cc1cc(C)cc(-c2cccc(S(=O)(=O)N3CCC(N4CCC(C)CC4)CC3)c2)c1` [compound 69, 1′-((3′,5′-Dimethyl-[1,1′-biphenyl]-3-yl)sulfonyl)-4-methyl-1,4′-bipiperidine] in this work.

A melting point of 144 to 147 °C was found for `CC1CCN(C2CCN(S(=O)(=O)c3cccnc3)CC2)CC1` [compound 71, 4-Methyl-1′-(pyridin-3-ylsulfonyl)-1,4′-bipiperidine] in this work.

A melting point of 122 to 124 °C was found for `CC1CCN(C2CCN(S(=O)(=O)c3cccnc3Cl)CC2)CC1` [compound 72, 1′-((2-Chloropyridin-3-yl)sulfonyl)-4-methyl-1,4′-bipiperidine] in this work.

A melting point of 120 to 123 °C was found for `CC1CCN(C2CCN(S(=O)(=O)c3cccnc3F)CC2)CC1` [compound 73, 1′-((2-Fluoropyridin-3-yl)sulfonyl)-4-methyl-1,4′-bipiperidine] in this work.

A melting point of 178 to 182 °C was found for `CC1CCN(C2CCN(S(=O)(=O)c3ccc(Cl)nc3)CC2)CC1` [compound 74, 1′-((6-Chloropyridin-3-yl)sulfonyl)-4-methyl-1,4′-bipiperidine] in this work.

A melting point of 171 to 173 °C was found for `CC1CCN(C2CCN(S(=O)(=O)c3cncc(Br)c3)CC2)CC1` [compound 75, 1′-((5-Bromopyridin-3-yl)sulfonyl)-4-methyl-1,4′-bipiperidine] in this work.

A melting point of 212 to 215 °C was found for `CC1CCN(C2CCN(S(=O)(=O)c3cn(C)c(=O)n(C)c3=O)CC2)CC1` [compound 76, 1,3-Dimethyl-5-((4-methyl-[1,4′-bipiperidin]-1′-yl)sulfonyl)pyrimidine-2,4(1H,3H)-dione] in this work.

A melting point of 153 to 156 °C was found for `CC1CCN(C2CCN(S(=O)(=O)c3nccn3C)CC2)CC1` [compound 77, 4-Methyl-1′-((1-methyl-1H-imidazol-2-yl)sulfonyl)-1,4′-bipiperidine] in this work.

A melting point of 139 to 142 °C was found for `CC1CCN(C2CCN(S(=O)(=O)c3cn(C)cn3)CC2)CC1` [compound 78, 4-Methyl-1′-((1-methyl-1H-imidazol-4-yl)sulfonyl)-1,4′-bipiperidine] in this work.

A melting point of 158 to 161 °C was found for `Cc1noc(C)c1S(=O)(=O)N1CCC(N2CCC(C)CC2)CC1` [compound 79, 3,5-Dimethyl-4-((4-methyl-[1,4′-bipiperidin]-1′-yl)sulfonyl)isoxazole] in this work.

A melting point of 141 to 143 °C was found for `CC1CCN(C2CCN(S(=O)(=O)c3cnc(Cl)s3)CC2)CC1` [compound 80, 2-Chloro-5-((4-methyl-[1,4′-bipiperidin]-1′-yl)sulfonyl)thiazole] in this work.

A melting point of 117 to 119 °C was found for `Cc1nc(Cl)sc1S(=O)(=O)N1CCC(N2CCC(C)CC2)CC1` [compound 81, 2-Chloro-4-methyl-5-((4-methyl-[1,4′-bipiperidin]-1′-yl)sulfonyl)thiazole] in this work.

A melting point of 139 to 141 °C was found for `CC1CCN(C2CCN(S(=O)(=O)c3sc(Cl)nc3C3CC3)CC2)CC1` [compound 82, 2-Chloro-4-cyclopropyl-5-((4-methyl-[1,4′-bipiperidin]-1′-yl)sulfonyl)thiazole] in this work.

A melting point of 128 to 132 °C was found for `CC1CCN(C2CCN(S(=O)(=O)c3cc(Br)cc4c3OCC4)CC2)CC1` [compound 86, 1′-((5-Bromo-2,3-dihydrobenzofuran-7-yl)sulfonyl)-4-methyl-1,4′-bipiperidine] in this work.

A melting point of 129 to 132 °C was found for `CC1CCN(C2CCN(S(=O)(=O)c3ccc(Cl)c4ccccc34)CC2)CC1` [compound 88, 1′-((4-Chloronaphthalen-1-yl)sulfonyl)-4-methyl-1,4′-bipiperidine] in this work.

A melting point of 123 to 126 °C was found for `CC1CCN(C2CCN(S(=O)(=O)c3cccc4cnccc34)CC2)CC1` [compound 90, 5-((4-Methyl-[1,4′-bipiperidin]-1′-yl)sulfonyl)isoquinoline] in this work.

A melting point of 88 to 91 °C was found for `CC1CCCN(C2CCN(S(=O)(=O)c3ccc(OC(F)F)cc3)CC2)C1` (stereo not drawn) [compound 91, 1′-((4-(Difluoromethoxy)phenyl)sulfonyl)-3-methyl-1,4′-bipiperidine] in this work.

A melting point of 161 to 164 °C was found for `C#CCC1CCN(C2CCN(S(=O)(=O)c3ccc(Br)cc3)CC2)CC1` [compound 92, 1′-((4-Bromophenyl)sulfonyl)-4-(prop-2-yn-1-yl)-1,4′-bipiperidine] in this work.

A melting point of 82 to 85 °C was found for `Cc1cc(C)c(S(=O)(=O)N2CCC(N3CCC(CCO)CC3)CC2)c(C)c1` [compound 100, 2-(1′-(Mesitylsulfonyl)-[1,4′-bipiperidin]-4-yl)ethanol] in this work.

A melting point of 120 to 123 °C was found for `Cc1cc(C)c(S(=O)(=O)N2CCC(N3CCC(O)CC3)CC2)c(C)c1` [compound 101, 1′-(Mesitylsulfonyl)-[1,4′-bipiperidin]-4-ol] in this work.

A melting point of 141 to 144 °C was found for `Cc1cc(C)c(S(=O)(=O)N2CCC(N3CCC(c4ccccc4)CC3)CC2)c(C)c1` [compound 111, 1′-(Mesitylsulfonyl)-4-phenyl-1,4′-bipiperidine] in this work.

A melting point of 122 to 124 °C was found for `Cc1cc(C)c(S(=O)(=O)N2CCC(C(=O)N3CCC(C)CC3)CC2)c(C)c1` [compound 113, (1-(Mesitylsulfonyl)piperidin-4-yl 4-methylpiperidin-1-yl)methanone] in this work.

A melting point of 148 to 151 °C was found for `Cc1ccc(NC2CCN(S(=O)(=O)c3c(C)cc(C)cc3C)CC2)cc1` [compound 114, 1-(Mesitylsulfonyl)-N-(p-tolyl)piperidin-4-amine] in this work.

A melting point of 87 to 90 °C was found for `Cc1ccc(C2CCN(S(=O)(=O)c3c(C)cc(C)cc3C)CC2)cc1` [compound 115, 1-(Mesitylsulfonyl)-4-(p-tolyl)piperidine] in this work.

A melting point of 88 to 90 °C was found for `Cc1cc(C)c(S(=O)(=O)N2CCC(c3ccccc3)CC2)c(C)c1` [compound 116, 1-(Mesitylsulfonyl)-4-phenylpiperidine] in this work.

A melting point of 144 to 147 °C was found for `CCCC(=O)NC1CCN(S(=O)(=O)c2c(C)cc(C)cc2C)CC1` [compound 118, N-(1-(Mesitylsulfonyl)piperidin-4-yl)butyramide] in this work.

A melting point of 72 to 75 °C was found for `CC1CCN(C2CCN(C(=O)c3ccc(OC(F)(F)F)cc3)CC2)CC1` [compound 119, (4-Methyl-[1,4′-bipiperidin]-1′-yl)(4-(trifluoromethoxy)phenyl)methanone] in this work.

A melting point of 103 to 105 °C was found for `Cc1cc(C)c(S(=O)(=O)c2ccc(N3CCC(C)CC3)cc2)c(C)c1` [compound 125, 1-(4-(Mesitylsulfonyl)phenyl)-4-methylpiperidine] in this work.

For `Cc1cc(C)c(S(=O)(=O)N2CCN(C3CN4CCC3CC4)CC2)c(C)c1` (stereo not drawn) [compound 127, 3-(4-(Mesitylsulfonyl)piperazin-1-yl)quinuclidine], the melting point was > 300 °C.

A melting point of 182 to 184 °C was found for `Cc1cc(C)c(S(=O)(=O)N2CCN(C34CC5CC(CC(C5)C3)C4)CC2)c(C)c1` [compound 128, 1-(Adamantan-1-yl)-4-(mesitylsulfonyl)piperazine] in this work.

A melting point of 88 to 92 °C was found for `Cc1cc(C)c(S(=O)(=O)N2CCC(NC3CCCC3)CC2)c(C)c1` [compound 132, N-cyclopentyl-1-(mesitylsulfonyl)piperidin-4-amine] in this work.

A melting point of 85 to 88 °C was found for `Cc1cc(C)c(S(=O)(=O)N2CCC(CO)CC2)c(C)c1` [compound 137, (1-(mesitylsulfonyl)piperidin-4-yl)methanol] in this work.

A melting point of 71 to 74 °C was found for `Cc1cc(C)c(S(=O)(=O)N2CCC(C=O)CC2)c(C)c1` [compound 138, 1-(mesitylsulfonyl)piperidine-4-carbaldehyde] in this work.

A melting point of 137 to 139 °C was found for `CC1CCN(CC2CCN(S(=O)(=O)c3ccc4ncsc4c3)CC2)CC1` [compound 148, 6-((4-((4-methylpiperidin-1-yl)methyl)piperidin-1-yl)sulfonyl)benzo[d]thiazole] in this work.
